The first test concerns the target T1, human TLR9 (hTLR9) (Homo sapiens, UniProt Q9NR96).
T1 construct: expressed in transfected cells
T1 sequence (Q9NR96 26-1032): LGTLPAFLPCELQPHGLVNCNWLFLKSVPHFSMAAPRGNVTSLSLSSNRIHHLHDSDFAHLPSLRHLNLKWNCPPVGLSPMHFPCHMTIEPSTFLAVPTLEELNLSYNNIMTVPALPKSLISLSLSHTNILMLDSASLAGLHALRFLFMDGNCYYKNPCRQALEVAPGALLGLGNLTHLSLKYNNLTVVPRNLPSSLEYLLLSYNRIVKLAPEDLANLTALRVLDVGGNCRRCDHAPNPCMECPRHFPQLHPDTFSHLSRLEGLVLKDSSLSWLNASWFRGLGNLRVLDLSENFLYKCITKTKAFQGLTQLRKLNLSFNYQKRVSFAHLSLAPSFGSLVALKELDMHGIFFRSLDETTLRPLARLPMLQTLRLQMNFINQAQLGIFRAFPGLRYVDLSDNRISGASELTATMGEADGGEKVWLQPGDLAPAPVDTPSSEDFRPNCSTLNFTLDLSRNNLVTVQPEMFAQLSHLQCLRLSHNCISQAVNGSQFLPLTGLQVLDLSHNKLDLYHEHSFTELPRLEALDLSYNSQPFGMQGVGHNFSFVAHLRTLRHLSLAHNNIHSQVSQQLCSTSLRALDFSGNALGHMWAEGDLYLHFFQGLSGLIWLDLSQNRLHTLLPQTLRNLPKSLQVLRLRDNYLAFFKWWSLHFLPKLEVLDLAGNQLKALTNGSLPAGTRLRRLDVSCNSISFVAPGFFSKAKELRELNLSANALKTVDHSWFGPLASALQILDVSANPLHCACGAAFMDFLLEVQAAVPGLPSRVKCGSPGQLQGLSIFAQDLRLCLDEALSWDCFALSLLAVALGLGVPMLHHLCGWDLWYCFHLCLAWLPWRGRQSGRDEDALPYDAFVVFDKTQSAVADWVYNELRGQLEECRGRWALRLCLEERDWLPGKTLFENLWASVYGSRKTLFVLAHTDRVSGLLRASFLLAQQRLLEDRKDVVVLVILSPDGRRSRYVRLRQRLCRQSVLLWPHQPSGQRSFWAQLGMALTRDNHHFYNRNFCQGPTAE
Briefly: Antagonist screen, hTLR9-NFκB-293 cells, 6× NF-κB-luciferase reporter, with EC50 of CpG ODN 2006. The class given is cell-based. To be noted: FIG. 1, graph. Here is the method:
Candidate small molecules for initial screening were obtained from a commercially available library of 880 off-patent small molecules selected for structural diversity and proven bioavailability in humans (Prestwick Chemical Library). […] Results were measured as fold induction over baseline luciferase activity measured in the absence of ODN 2006 and compared to fold induction over baseline in the presence of the EC50 concentration of ODN 2006 alone. […] Additional screening was performed in like manner using additional small molecules selected from another library or specifically prepared for this purpose.
The method is described in greater detail as follows. The cells for each individual cell clone (hTLR3-NFκB-293, hTLR7-NFκB-293, hTLR8-NFκB-293 and hTLR9-NFκB-293) were counted and seeded one day before the stimulation at 1.5×10^4 cells per well in 96-well cell culture plates. To become adherent the cells were incubated after seeding overnight at 37° C. in 5% CO2 humidified air.
The screen for each compound was performed at the same time for all of the receptors TLR3, TLR7, TLR8 and TLR9. Up to fifteen test compounds, each assayed in duplicate at each of three different final concentrations (0.5 μg/ml, 5 μg/ml, and 50 μg/ml), were used for 16 h cell stimulation on a single multiwell culture plate. A 4× final concentration master plate was created to prepare the different test compounds before they were added to the cells.
Controls were added as duplicates individually for each cell clone on the cell culture plate. Positive controls were used as follows (final concentrations): 50 μg/ml poly(I:C) for hTLR3-NFκB-293; 8 μM resiquimod (R848) for hTLR7-NFκB-293; 30 μM R848 for hTLR8-NFκB-293; and 2.5 μM CpG-ODN 2006 for hTLR9-NFκB-293. Media alone was used as negative control. After addition of controls and small molecules, the cell clones were additionally stimulated with the EC50 concentration of the appropriate receptor-specific ligand.
The mean value of wells H2 and H5 (each with cells and EC50 concentration of the appropriate receptor-specific ligand) divided by the mean of wells H3 and H6 (each with cells alone) yielded the baseline response (i.e., fold induction of luciferase activity) to EC50 concentration of the appropriate receptor-specific ligand.
After 16 h stimulation the supernatant was removed and the cells treated with lysis buffer and stored at −80° C. before measuring.
For each screen result a graphical documentation was performed.
The baseline result (measured with addition of the EC50 concentration of the receptor-specific ligand) for each cell culture plate was measured as described above. Antagonistic effects were measured by down regulation compared to the baseline. Antagonists were scored as follows: • 13: compounds for which there was clear down regulation at 0.5 μg/ml, 5 μg/ml, and 50 μg/ml; • 12: compounds for which there was clear down regulation at 5 μg/ml and 50 μg/ml; • 11: compounds for which there was clear down regulation only at 50 μg/ml; • —: compounds for which there was no clear down regulation even at 50 μg/ml. Agonists
For orientation: A reporter such as luciferase makes a cellular process visible.
`c1ccc2c(c1)[nH]c1cnccc12` [compound 470, norharman]: the “inhibition of TLR9 signaling in response to CpG ODN 2006 (FIG. 1)” value is reported as “concentration-dependent inhibition”.

The test is the same for the next values; noted with them: compound at 0.5, 5, 50 μg/ml; EC50 concentration of CpG ODN 2006; 16 h; NF-κB-luciferase.
In the case of `CC1NCCc2c1[nH]c1ccccc21.Cl` (racemic) [compound 619, Eleagnine hydrochloride (R,S)], the “hTLR9 (inhibitory effect, antagonist score)” value was 12 (compounds for which there was clear down regulation at 5 μg/ml and 50 μg/ml).
Turning to `O=C1c2c(O)cccc2Cc2cccc(O)c21` [compound 43, Anthralin], the “hTLR9 (inhibitory effect, antagonist score)” value is 13 (compounds for which there was clear down regulation at 0.5 μg/ml, 5 μg/ml, and 50 μg/ml).
Still for that read-out and setting: for `CN(C)CCCN1c2ccccc2Sc2ccc(C(F)(F)F)cc21.Cl` [compound 53, Triflupromazinehydrochloride] the value was 13 (compounds for which there was clear down regulation at 0.5 μg/ml, 5 μg/ml, and 50 μg/ml); for `CN(C)CCCN1c2ccccc2Sc2ccc(Cl)cc21.Cl` [compound 64, Chlorpromazinehydrochloride], 12 (compounds for which there was clear down regulation at 5 μg/ml and 50 μg/ml).
`CN(C)CCC=C1c2ccccc2CCc2ccccc21.Cl` [compound 74, Amitryptilinehydrochloride]: the “hTLR9 (inhibitory effect, antagonist score)” value is 12 (compounds for which there was clear down regulation at 5 μg/ml and 50 μg/ml).
For `OC(c1ccccc1)(c1ccccc1)C1CCNCC1` [compound 93, Azacyclonol], the “hTLR9 (inhibitory effect, antagonist score)” value was 11 (compounds for which there was clear down regulation only at 50 μg/ml).
For `CN1Cc2c(N)cccc2C(c2ccccc2)C1.O=C(O)/C=C\C(=O)O` (stereo not shown) [compound 108, Nomifensine maleate], the “hTLR9 (inhibitory effect, antagonist score)” value is listed as 11 (compounds for which there was clear down regulation only at 50 μg/ml).
For the compound `C[C@]12N[C@H](Cc3ccccc31)c1ccccc12.O=C(O)/C=C\C(=O)O` [compound 109, Dizocilpine maleate], the “hTLR9 (inhibitory effect, antagonist score)” value is 13 (compounds for which there was clear down regulation at 0.5 μg/ml, 5 μg/ml, and 50 μg/ml).
Turning to `OCCN1CCN(CCCN2c3ccccc3Sc3ccc(Cl)cc32)CC1` [compound 125, Perphenazine], the “hTLR9 (inhibitory effect, antagonist score)” value was 11 (compounds for which there was clear down regulation only at 50 μg/ml).
Still for that read-out and setting: the result for `CN1CCN(CCCN2c3ccccc3Sc3ccc(S(=O)(=O)N(C)C)cc32)CC1.CS(=O)(=O)O.CS(=O)(=O)O` [compound 149, Thioproperasinedimesylate] reads 13 (compounds for which there was clear down regulation at 0.5 μg/ml, 5 μg/ml, and 50 μg/ml); that for `Clc1ccccc1C(c1ccccc1)(c1ccccc1)n1ccnc1` [compound 267, Clotrimazole], “— (compounds for which there was no clear down regulation even at 50 μg/ml)”.
The same measure, in the same setting: the result for `CC(NCCC(c1ccccc1)c1ccccc1)c1ccccc1.Cl` (stereo not shown) [compound 270, Fendiline hydrochloride] reads “— (compounds for which there was no clear down regulation even at 50 μg/ml)”.
In the case of `CN1CCC(=C2c3ccccc3Sc3ccccc32)CC1.O=C(O)/C=C\C(=O)O` [compound 294, Pimethixene maleate], the “hTLR9 (inhibitory effect, antagonist score)” value is recorded as 11 (compounds for which there was clear down regulation only at 50 μg/ml).
Regarding `O=c1[nH]c2ccccc2n1C1CCN(CCCC(c2ccc(F)cc2)c2ccc(F)cc2)CC1` [compound 308, Pimozide], the “hTLR9 (inhibitory effect, antagonist score)” value is 12 (compounds for which there was clear down regulation at 5 μg/ml and 50 μg/ml).
On to `Cl.Cl.OCCN1CCN(CC/C=C2/c3ccccc3Sc3ccc(C(F)(F)F)cc32)CC1` [compound 340, Flupentixoldihydrochloride cis-(Z)], for which the “hTLR9 (inhibitory effect, antagonist score)” value is 11 (compounds for which there was clear down regulation only at 50 μg/ml).
Same read-out and setting: for `CNCCCN1c2ccccc2CCc2ccccc21.Cl` [compound 343, Desipraminehydrochloride] the value was 12 (compounds for which there was clear down regulation at 5 μg/ml and 50 μg/ml); for `CN(C)CC/C=C1/c2ccccc2Sc2ccc(Cl)cc21.Cl` [compound 348, Chlorprothixenehydrochloride], 12 (compounds for which there was clear down regulation at 5 μg/ml and 50 μg/ml); for `Cc1cccc(C)c1NC(=O)CN1CCN(CCCC(c2ccc(F)cc2)c2ccc(F)cc2)CC1` [compound 381, Lidoflazine], 11 (compounds for which there was clear down regulation only at 50 μg/ml).
With `Cl.Cl.Fc1ccc(C(OCCN2CCN(CCCc3ccccc3)CC2)c2ccc(F)cc2)cc1` [compound 386, GBR 12909hydrochloride], the “hTLR9 (inhibitory effect, antagonist score)” value is on record as “— (compounds for which there was no clear down regulation even at 50 μg/ml)”.
Turning to `Nc1cccc2c1C(=O)c1cccc(N)c1C2=O` [compound 413, Anthraquinone,1,5-diamino], the “hTLR9 (inhibitory effect, antagonist score)” value was 13 (compounds for which there was clear down regulation at 0.5 μg/ml, 5 μg/ml, and 50 μg/ml).
For the compound `CN1CCC2C(C1)c1ccccc1N2Cc1ccccc1` (stereo not shown) [compound 455, Mebhydroline 1,5 naphtalenedisulfonate], the “hTLR9 (inhibitory effect, antagonist score)” value is 12 (compounds for which there was clear down regulation at 5 μg/ml and 50 μg/ml).
As for `Cc1cccc(CN2CCN(C(c3ccccc3)c3ccc(Cl)cc3)CC2)c1.Cl.Cl` (stereo not shown) [compound 457, Meclozinedihydrochioride], the “hTLR9 (inhibitory effect, antagonist score)” value was 11 (compounds for which there was clear down regulation only at 50 μg/ml).
In the case of `c1ccc2c(c1)[nH]c1cnccc12` [compound 470, norharman], the “hTLR9 (inhibitory effect, antagonist score)” value is reported as 11 (compounds for which there was clear down regulation only at 50 μg/ml).
On to `CN(C)CC/C=C1/c2ccccc2CSc2ccccc21.Cl` [compound 488, Dosulepin hydrochloride], for which the “hTLR9 (inhibitory effect, antagonist score)” value was 12 (compounds for which there was clear down regulation at 5 μg/ml and 50 μg/ml).
On to `CN1CCN(C(c2ccccc2)c2ccccc2)CC1.Cl` [compound 510, Cyclizine hydrochloride], for which the “hTLR9 (inhibitory effect, antagonist score)” value is 11 (compounds for which there was clear down regulation only at 50 μg/ml).
`CN1CCCCC1CCN1c2ccccc2Sc2ccc([S+](C)[O-])cc21.O=S(=O)(O)c1ccccc1` (stereo not shown) [compound 529, Mesoridazine besylate]: the “hTLR9 (inhibitory effect, antagonist score)” value was 11 (compounds for which there was clear down regulation only at 50 μg/ml).
On the same count and under the same terms, the result for `CCOC(=O)Oc1c(OC)cc(C(=O)O[C@@H]2C[C@@H]3CN4CCc5c([nH]c6cc(OC)ccc56)[C@H]4C[C@@H]3[C@H](C(=O)OC)[C@H]2OC)cc1OC` [compound 564, Syrosingopine] reads 13 (compounds for which there was clear down regulation at 0.5 μg/ml, 5 μg/ml, and 50 μg/ml).

The values above are taken from patent publication US7410975B2, “Small molecule toll-like receptor (TLR) antagonists” (Coley Pharmaceutical Group, Inc., priority 2003, dated 2008).
